From US20260130932A1, “NOVEL COMBINATION OF RIFAXIMIN AND CLARITHROMYCIN FOR TREATING MULTIDRUG-RESISTANT MYCOBACTERIUM ABSCESSUS” (priority 2022, published 2026)
Counter-ions that a name gives are not always drawn.

Columns and labels:
[1] = test system: M. abscessus strain M422; assay: Single-concentration assay with and without clarithromycin (hit validation); type: cell-based, Mycobacterium abscessus; conditions: for % inhibition with 0.5 μg/ml Clr: compound combined with clarithromycin; for % inhibition with compound alone: without clarithromycin
Method: For checkerboard synergy assay, 3 M. abscessus strains were used: M. abscessus ATCC 19977, M. abscessus strains M422 and M110, while bactericidal activity determination and the zebrafish study were performed with M. abscessus ATCC 19977. All three strains of M. abscessus harbor the inducible clarithromycin resistance-conferring erm(41) T28 sequevar. M. abscessus strain M422 and M110 were provided by Dr. Jeanette Teo, National University Hospital, Singapore (Chew K L, et al., 2017. J Med Microbiol 66: 1443-1447). M. abscessus ATCC 19977 and M. avium ATCC 700898 were acquired from American Type Culture Collection (ATCC).
Primary screening was carried out in 96-well flat-bottom Corning Costar cell culture plates at 50 μM compound along with 4 μg/ml of Clr in a starting inoculum of pre-induced M. abscessus cells at OD600 of 0.005 in a final volume of 100 μl. The plates were put in an airtight container with moist paper towels and incubated for 4 d at 30° C. The cultures in the wells were resuspended before OD600 was read in a BioTek Synergy 4 plate reader.
To start the validation process, the top 10 compounds with >90% growth inhibition were chose to perform a single-concentration assay, with and without clarithromycin. Finally, the inventors obtained 7 compounds that potentiated Clr efficacy.

[2] = test system: M. abscessus ATCC 19977 (pre-induced); assay: microbe, parasite or virus in culture; type: cell-based, Mycobacterium abscessus; conditions: for Percentage of bacterial growth: clarithromycin 0 μg/ml
Method: The FICI was calculated by summing the FIC of Rfx and the FIC of Clr. FIC of Clr is the MIC of Clr in the presence of Rfx divided by MIC of Clr alone. FIC of Rfx was similarly calculated.
To characterize the interaction between Clr and Rfx, checkerboard synergy assays were performed on pre-induced Clr-resistant M. abscessus. The fractional inhibitory concentration index (FICI) obtained from the checkerboard assay defines whether the interaction between the two compounds is either synergistic (FICI≤0.5), additive (0.5<FICI≤1.0), indifferent (1.0<FICI≤4.0), or antagonistic (FICI >4.0) (Noel D J, Keevil C W, Wilks S A. 2021. MBio 12).

Row | Compound | % inhibition with 0.5 μg/ml Clr [1] [%] | % inhibition with compound alone [1] [%] | Percentage of bacterial growth ([2]; partner antibiotic 1 μg/ml) [%] | Percentage of bacterial growth ([2]; partner antibiotic 2 μg/ml) [%] | Percentage of bacterial growth ([2]; partner antibiotic 4 μg/ml) [%] | Percentage of bacterial growth ([2]; partner antibiotic 8 μg/ml) [%] | Percentage of bacterial growth ([2]; partner antibiotic 16 μg/ml) [%] | Percentage of bacterial growth ([2]; partner antibiotic 32 μg/ml) [%] | Percentage of bacterial growth ([2]; partner antibiotic 64 μg/ml) [%] | concentration at which synergistic effects with clarithromycin are exhibited ([2]; Table 3) [µg/mL] | FICI ([2]; clarithromycin with a known partner antibiotic, each 0-64 μg/ml)
1 | OB1OCc2cc(F)ccc21 [AN-2690] | 96.7 | 80.4 |  |  |  |  |  |  |  |  | 
2 | CC(=O)OC[C@H]1O[C@@H]([S-])[C@H](OC(C)=O)[C@@H](OC(C)=O)[C@@H]1OC(C)=O.CCP(CC)CC.[Au+] [Auranofin] | 98.5 | 86.9 |  |  |  |  |  |  |  |  | 
3 | CO/N=C(\C(=O)N[C@@H]1C(=O)N2C(C(=O)O)=C(COC(C)=O)CS[C@H]12)c1csc(N)n1 [Cefotaxime (sodium salt), Cefotaxime] | 98.5 | 86.7 |  |  |  |  |  |  |  |  | 
4 | CO[C@@H]1[C@@H](OC(N)=O)[C@@H](O)[C@H](Oc2ccc3c(O)c(NC(=O)c4ccc(O)c(CC=C(C)C)c4)c(=O)oc3c2C)OC1(C)C [Novobiocin (Sodium), Novobiocin] | 99.7 | 84.1 |  |  |  |  |  |  |  |  | 
5 | CC(=O)NC[C@H]1CN(c2ccc(N3CCSCC3)c(F)c2)C(=O)O1 [Sutezolid] | 92.8 | 80.4 |  |  |  |  |  |  |  |  | 
6 | Cn1nnc(-c2ccc(-c3ccc(N4C[C@H](CO)OC4=O)cc3F)cn2)n1 [Tedizolid] | 99.1 | 85.2 |  |  |  |  |  |  |  |  | 
7 | C[C@@H](O)[C@H]1C(=O)N2C(C(=O)O)=C(SCCN=CN)C[C@H]12 [imipenem] |  |  | 86.9 | 93.4 | 58.5 | 78.5 | 62.1 | 38.3 | 16.6 |  | 
8 | COc1c(N2C[C@@H]3CCCN[C@@H]3C2)c(F)cc2c(=O)c(C(=O)O)cn(C3CC3)c12 [moxifloxacin] |  |  | 107.8 | 122.8 | 86.4 | 51.2 | 13.4 | 7.4 | 0.6 |  | 
9 | CN(C)c1cc(NC(=O)CNC(C)(C)C)c(O)c2c1C[C@H]1C[C@H]3[C@H](N(C)C)C(O)=C(C(N)=O)C(=O)[C@@]3(O)C(O)=C1C2=O [tigecycline] |  |  | 64.2 | 74.2 | 77.8 | 67.0 | 39.3 | 22.4 | 10.1 | ≥ 16 | 0.25
10 | CN[C@H](CC(C)C)C(=O)N[C@H]1C(=O)N[C@@H](CC(N)=O)C(=O)N[C@H]2C(=O)N[C@H]3C(=O)N[C@H](C(=O)N[C@H](C(=O)O)c4cc(O)cc(O)c4-c4cc3ccc4O)[C@H](O)c3ccc(c(Cl)c3)Oc3cc2cc(c3O[C@@H]2O[C@H](CO)[C@@H](O)[C@H](O)[C@H]2O[C@H]2C[C@](C)(N)[C@H](O)[C@H](C)O2)Oc2ccc(cc2Cl)[C@H]1O [vancomycin] |  |  | 103.7 | 102.0 | 105.7 | 91.7 | 90.8 | 86.6 | 83.1 |  | 
11 | oritavancin diphosphate |  |  | 68.0 | 59.1 | 51.1 | 46.8 | 40.9 | 32.2 | 26.1 |  | 
